Series [1] deals with T1, Tyrosine-protein kinase receptor UFO (Homo sapiens, UniProt P30530).
T1 sequence (P30530 whole entry): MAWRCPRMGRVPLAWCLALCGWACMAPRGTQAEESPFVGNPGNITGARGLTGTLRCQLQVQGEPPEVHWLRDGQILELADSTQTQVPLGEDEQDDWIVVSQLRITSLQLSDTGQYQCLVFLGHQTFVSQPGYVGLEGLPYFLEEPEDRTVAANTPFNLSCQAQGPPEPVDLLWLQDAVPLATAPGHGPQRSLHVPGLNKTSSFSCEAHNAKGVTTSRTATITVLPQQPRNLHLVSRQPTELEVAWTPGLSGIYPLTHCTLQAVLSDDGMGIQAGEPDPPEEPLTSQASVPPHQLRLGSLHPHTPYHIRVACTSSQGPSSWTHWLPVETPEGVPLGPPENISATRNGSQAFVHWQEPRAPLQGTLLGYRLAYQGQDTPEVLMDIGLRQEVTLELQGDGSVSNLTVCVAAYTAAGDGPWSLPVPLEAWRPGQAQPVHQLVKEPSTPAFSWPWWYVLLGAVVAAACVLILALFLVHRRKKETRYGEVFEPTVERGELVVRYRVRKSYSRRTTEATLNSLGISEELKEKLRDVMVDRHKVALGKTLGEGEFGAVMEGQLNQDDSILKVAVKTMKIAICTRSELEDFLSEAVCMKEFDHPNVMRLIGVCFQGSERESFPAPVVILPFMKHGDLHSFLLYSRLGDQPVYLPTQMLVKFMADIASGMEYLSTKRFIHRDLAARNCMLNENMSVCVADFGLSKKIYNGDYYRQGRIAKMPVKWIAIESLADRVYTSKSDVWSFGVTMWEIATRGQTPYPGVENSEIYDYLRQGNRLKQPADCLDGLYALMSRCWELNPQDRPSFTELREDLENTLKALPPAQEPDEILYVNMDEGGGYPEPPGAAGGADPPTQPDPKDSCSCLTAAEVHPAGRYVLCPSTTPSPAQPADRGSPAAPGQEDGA
In words: Inhibition of AXL (unknown origin) using poly [Glu, Tyr] 4:1 as substrate incubated for 60 mins in presence of ATP by ELISA.

Series [2] deals with BaF3. In words: Antiproliferative activity against mouse BaF3/TEL-AXL cells incubated for 72 hrs by SRB or CCK8 assay. To be noted: BaF3, 72 h. In general terms: Tetrazolium dyes change colour on reduction, which living cells bring about.
The test system of series [3] is BaF3. Description: Antitumor activity against mouse BaF3/TEL-AXL cells xenografted in BALB/c nude mouse assessed as tumor growth inhibition at 50 mg/kg, po administered once daily for 14 days by caliper method. It counts as functional. As to conditions: 336 h, time 14 day, read-out: TGI.
A short description of series [4]: AUC(0 to infinity) in Sprague-Dawley rat at 3 mg/kg, po measured upto 24 hrs by LC-MS analysis. In kind it is ADME, organism-based. On the set-up: route oral, dose 3 mg/kg, time <=24. To be noted: in vivo.
Series [5] in a line: Half life in Sprague-Dawley rat at 3 mg/kg, po measured upto 24 hrs by LC-MS analysis. In kind it is ADME, organism-based. To be noted: in vivo.
The nature of series [6]: Cmax in Sprague-Dawley rat at 3 mg/kg, po measured upto 24 hrs by LC-MS analysis. On the set-up: route oral, dose 3 mg/kg, time <=24. To be noted: in vivo. It counts as ADME, organism-based.
Series [7] in a line: Tmax in Sprague-Dawley rat at 3 mg/kg, po measured upto 24 hrs by LC-MS analysis. In kind it is ADME, organism-based. As to conditions: in vivo.
A short description of series [8]: AUC(0 to t) in Sprague-Dawley rat at 3 mg/kg, po measured upto 24 hrs by LC-MS analysis. In kind it is ADME, organism-based. On the set-up: route oral, dose 3 mg/kg, time <=24. To be noted: in vivo.
In another series the test system is U-87 MG. Description: Antitumor activity against human U-87MG cells xenografted in BALB/c nude mouse assessed as tumor growth inhibition at 50 mg/kg, po administered once daily for 14 days by caliper method. As to conditions: 336 h, time 14 day, read-out: TGI. It counts as functional, U-87MG ATCC.

Structures are written as SMILES.

As for `Cn1cc(-c2cnccc2Oc2ccc(NC(=O)C3=C(c4ccccc4)c4ccccc4C3=O)cc2)cn1`, the IC50 in series [1] is over 1000 nM.

`CC(C)n1cc(C(=O)Nc2ccc(Oc3ccnc(-c4cnn(C5CC5)c4)c3)c(F)c2)c(=O)n(-c2ccc(F)cc2)c1=O` registered an IC50 in the series on BaF3 [2] of 6.3 nM.

On to `CC(C)n1cc(C(=O)Nc2ccc(Oc3ccnc(NC(=O)N4CCOCC4)c3)c(F)c2)c(=O)n(-c2ccc(F)cc2)c1=O`, for which the IC50 in the series with BaF3 [2] was under 0.2 nM.

In the case of `CC(=O)Nc1cc(Oc2ccc(NC(=O)c3cn(C(C)C)c(=O)n(-c4ccc(F)cc4)c3=O)cc2F)ccn1`, the IC50 in the series on BaF3 [2] is under 0.2 nM.

Consider `CCC(=O)Nc1cc(Oc2ccc(NC(=O)c3cn(C(C)C)c(=O)n(-c4ccc(F)cc4)c3=O)cc2F)ccn1`, for which the IC50 with BaF3 [2] was under 0.2 nM.

`CCc1ccc2c(c1)c(=O)c(C(=O)Nc1ccc(Oc3ccncc3-c3cnn(C)c3)cc1)c(C)n2C`: the IC50 in [1] was over 1000 nM.

As for `CC(C)n1cc(C(=O)Nc2ccc(Oc3ccnc(-c4cnn(CCN5CCN(C)CC5)c4)c3)c(F)c2)c(=O)n(-c2ccc(F)cc2)c1=O`, the IC50 with BaF3 [2] is 19.5 nM.

In the series on BaF3 [2], `Nc1nc(Nc2ccc3c(c2)CC[C@@H](N2CCCC2)CC3)nn1-c1cc2c(nn1)-c1ccccc1CCC2` [BEMCENTINIB] registered an IC50 of 117 nM. In addition, the inhibition in vivo at 50 mg/kg in the series on BaF3 [3] worked out at 108%.

For `CC(C)n1cc(C(=O)Nc2ccc(Oc3ccnc(NC(=O)C4CCC4)c3)c(F)c2)c(=O)n(-c2ccc(F)cc2)c1=O`, in the series on BaF3 [2], the IC50 turned out to be 43.2 nM.

The compound `CC(C)n1cc(C(=O)Nc2ccc(Oc3ccnc(-c4cn[nH]c4)c3)c(F)c2)c(=O)n(-c2ccc(F)cc2)c1=O` came in with an AUC(0-inf) in series [4] of 52.2 µg·h/mL. This compound also gave a half-life in series [5] of 18.2 h. For the same compound, the IC50 in the series with BaF3 [2] is under 0.2 nM. In series [6], this compound came in with a Cmax of 2.57 µg/mL. In addition, the Tmax in series [7] was found to be 1.67 h. The AUC(0-t) at 24 h in [8] was determined as 31.6 µg·h/mL.

In turn, `CC(C)n1cc(C(=O)Nc2ccc(Oc3ccnc(-c4cnn(CC(C)(C)O)c4)c3)c(F)c2)c(=O)n(-c2ccc(F)cc2)c1=O` came in with an IC50 with BaF3 [2] of 2.8 nM.

For `CCc1nc(C(N)=O)c(Nc2ccc(N3CCC(N4CCN(C)CC4)CC3)c(OC)c2)nc1NC1CCOCC1` [GILTERITINIB], in the series with BaF3 [2], the IC50 is 7.6 nM.

With `CCOc1cn(-c2ccc(F)cc2)nc1C(=O)Nc1ccc(Oc2ccncc2-c2cnn(C)c2)cc1`, in series [1], the IC50 is over 1000 nM.

Turning to `CC(C)n1cc(C(=O)Nc2ccc(Oc3ccnc(-c4cnn(C)c4)c3)c(F)c2)c(=O)n(-c2ccc(F)cc2)c1=O`, in the series on BaF3 [2], the IC50 was 1.9 nM.

Turning to `COc1cc(NC(=O)c2cn(C(C)C)c(=O)n(-c3ccc(F)cc3)c2=O)ccc1Oc1ccnc(-c2cnn(C)c2)c1`, the IC50 in [1] is over 1000 nM.

As to `CC(C)n1cc(C(=O)Nc2ccc(Oc3ccnc(NC(=O)N4CCCC4)c3)c(F)c2)c(=O)n(-c2ccc(F)cc2)c1=O`, the IC50 in the series with BaF3 [2] is under 0.2 nM.

Regarding `Cn1cc(-c2cnccc2Oc2ccc(NC(=O)c3c4c(cn(-c5ccccc5)c3=O)C(=O)CCC4)cc2)cn1`, the concentration for half-maximal inhibition (IC50) in series [1] was over 1000 nM.

In the case of `Cc1nn(C)cc1-c1cc(Oc2ccc(NC(=O)c3cn(C(C)C)c(=O)n(-c4ccc(F)cc4)c3=O)cc2F)ccn1`, in the series with BaF3 [2], the IC50 was 1 nM.

As for `C[C@@H](Oc1cc(-c2cnn(C3CCNCC3)c2)cnc1N)c1c(Cl)ccc(F)c1Cl` [CRIZOTINIB], the inhibition in vivo at 50 mg/kg in the series with U-87 MG was found to be 93.3%.

Broadly, the IC50 is the concentration at which inhibition is half-maximal. As usually defined, the AUC(0-inf) is the area under the concentration-time curve extrapolated to infinity. The half-life is how long it takes for the measured level to halve. As usually defined, the Cmax is the highest concentration seen after dosing. A word on the Tmax: it is the time at which the peak concentration occurs. For orientation: AUC(0-t) means exposure summed from dosing to a finite time, without extrapolation to infinity. Lower therefore signals less exposure.

Values taken from ChEMBL document CHEMBL4823249, “Discovery of a Pyrimidinedione Derivative as a Potent and Orally Bioavailable Axl Inhibitor” (J Med Chem, 2021).
